This is an account of results in ChEMBL document CHEMBL4346758 (2019).

Data set [1] concerns Influenza A virus (A/Thailand/Kan353/2004(H5N1)). Kind of data set: Inhibition of Influenza A virus (A/Thailand/Kan353/2004(H5N1)) neuraminidase N1 using fluorogenic 2'-(4-Methylumbelliferyl)-alpha-D-N-acetylneuraminic acid sodium salt hydrate as substrate measured after 30 mins by microplate reader analysis.
Data set [2] can be described thus: Cytotoxicity against human A549 cells assessed as reduction in cell viability by MTT assay. Format: cell-based.
In data set [3] the test system is Influenza A virus. Kind of data set: microbe, parasite or virus in culture. The following applies: A/Puerto Rico/8/1934(H1N1), A549.
The test system of the next data set is MDCK. Put plainly: Cytotoxicity against MDCK cells assessed as cell viability. In kind it is cell-based, Canis lupus familiaris. The note with it: dog.
Data set [4] has as its system Vesicular stomatitis virus. Put plainly: Antiviral activity against VSV-G enveloped pseudovirus infected in MDCK cells assessed as inhibition of viral entry. Format: functional, organism-based.
Data set [5] has as its system Influenza A virus. Kind of data set: Inhibition of hemagglutinin 5 in Influenza A virus assessed as inhibition of chicken erythrocytes aggregation.
In data set [6] the test system is H5N1 subtype. In kind it is functional, organism-based. The note with it: 5 uM.
Data set [7] deals with Influenza A virus. In kind it is functional, organism-based. The following applies: H5N1.
Data set [8] in a line: Binding affinity to HA2 subunit by SPR assay. Details: species or system Influenza A virus.
Data set [9] has as its system H5N1 subtype. Kind of data set: Antiviral activity against Influenza A virus (A/Thailand/Kan353/2004(H5N1)) infected in MDCK cells assessed as inhibition of viral entry. In kind it is functional, organism-based.
The next data set concerns the target Hemagglutinin (Influenza A virus, UniProt B4URE7). Kind of data set: Binding affinity to hemagglutinin by SPR assay. On the technique in general: Surface plasmon resonance follows binding to a sensor surface in real time, without labels.

Calls of active or inactive are those of the source. No cut-off for these calls is given here. Bounds are passed on as bounds.

By CC50 is commonly meant the concentration at which the toxic effect on the cells reaches its halfway point. By IC50 is commonly meant the concentration that gives 50% inhibition. The Kd is the equilibrium constant for the complex coming apart. Low readings indicate higher affinity, high ones lower affinity.

Hemagglutinin, sequence (B4URE7 whole entry): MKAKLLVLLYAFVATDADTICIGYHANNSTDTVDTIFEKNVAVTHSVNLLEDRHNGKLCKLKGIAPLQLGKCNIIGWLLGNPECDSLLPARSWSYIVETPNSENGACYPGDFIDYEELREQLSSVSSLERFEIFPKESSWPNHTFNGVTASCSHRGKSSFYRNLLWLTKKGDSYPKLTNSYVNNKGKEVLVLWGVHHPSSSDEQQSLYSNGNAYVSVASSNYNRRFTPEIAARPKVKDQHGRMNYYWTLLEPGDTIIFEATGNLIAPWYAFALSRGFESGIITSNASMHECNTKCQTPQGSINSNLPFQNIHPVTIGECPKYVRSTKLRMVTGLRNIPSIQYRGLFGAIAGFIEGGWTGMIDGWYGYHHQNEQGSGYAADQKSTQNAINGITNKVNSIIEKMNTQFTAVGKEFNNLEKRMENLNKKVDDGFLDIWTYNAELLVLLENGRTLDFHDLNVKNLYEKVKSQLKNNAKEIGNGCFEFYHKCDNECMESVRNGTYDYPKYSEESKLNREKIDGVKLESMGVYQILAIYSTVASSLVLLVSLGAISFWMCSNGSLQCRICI

Consider `C[C@H]1[C@H](C)CC[C@]2(C(=O)NCCN3CCCCC3)CC[C@]3(C)C(=CC[C@@H]4[C@@]5(C)CC[C@H](O[C@@H]6O[C@H](CO)[C@@H](O[C@@H]7O[C@@H](C)[C@H](O)[C@@H](O)[C@H]7O)[C@H](O)[C@H]6O[C@@H]6O[C@@H](C)[C@H](O)[C@@H](O)[C@H]6O)C(C)(C)[C@@H]5CC[C@]43C)[C@H]12`, for which the inhibition result in data set [1] is “inactive”. Also, the CC50 in [2] was over 200 µM. Also, in the data set with Influenza A virus [3], half-maximal inhibition (IC50) was put at 21.3 µM.

In the case of `C[C@H]1[C@H](C)CC[C@]2(C(=O)NCCN3CCOCC3)CC[C@]3(C)C(=CC[C@@H]4[C@@]5(C)CC[C@H](O[C@@H]6O[C@H](CO)[C@@H](O[C@@H]7O[C@@H](C)[C@H](O)[C@@H](O)[C@H]7O)[C@H](O)[C@H]6O[C@@H]6O[C@@H](C)[C@H](O)[C@@H](O)[C@H]6O)C(C)(C)[C@@H]5CC[C@]43C)[C@H]12`, the Activity entry with MDCK was “Non-Toxic”. The inhibition entry (in data set [4]; in [1]; in the data set with Influenza A virus [5]) was “inactive” in each case. Further, in data set [2], the CC50 was over 200 µM. Further, the inhibition result in the data set with H5N1 subtype [6] is “Active”. In addition, the figures for the IC50 with Influenza A virus [3] and with H5N1 subtype [9] were 18.2 µM and 3.88 µM, respectively. In the data set with Influenza A virus [7], the inhibition entry was “Dose-dependent effect”. The Kd in [8] amounted to 0.00017 µM; at Hemagglutinin, 0.0161 µM.

`CCOC(=O)C1=C[C@@H](OC(CC)CC)[C@H](NC(C)=O)[C@@H](N)C1` [OSELTAMIVIR]: the CC50 in data set [2] was over 200 µM. Also, in the data set with Influenza A virus [3], it took 4.61 µM to reach half-maximal inhibition (IC50).

With `C[C@H]1[C@H](C)CC[C@]2(C(=O)O)CC[C@]3(C)C(=CC[C@@H]4[C@@]5(C)CC[C@H](O[C@@H]6O[C@H](CO)[C@@H](O[C@@H]7O[C@@H](C)[C@H](O)[C@@H](O)[C@H]7O)[C@H](O)[C@H]6O[C@@H]6O[C@@H](C)[C@H](O)[C@@H](O)[C@H]6O)C(C)(C)[C@@H]5CC[C@]43C)[C@H]12`, the CC50 in data set [2] was 66.6 µM. The same compound showed an IC50 with Influenza A virus [3] of 38.1 µM.
